This note sets out measurements from patent US5036081A, “Calcium absorption promoter” (Takeda Chemical Industries, Ltd., priority 1988, dated 1991).

Data set [1] concerns bone resorption (antebrachial bones, radius and ulna, of a fetus). Put plainly: tissue or blood. Format: cell-based, Sprague-Dawley rat. The conditions noted are these: for ^45 Ca released into medium: 2 days, mean ± S.D. (n = 5). As to the method: Effect of N-(1,3-dihydroxy-2-propyl)valiolamine and 1,25(OH)2 vitamin D3 on bone resorption
The bone resorption rate was determined by the method of Raisz (J. Clin. Invest. 44, 103-116, 1965). Thus, one Sprague-Dawley rat on day 18 of gestation was subcutaneously dosed with 50 μCi of ^45 Ca (an isotope of calcium, in CaCl2) and laparotomy was performed on the next day. The fetuses were aseptically taken out and under a dissecting microscope, the bilateral antebrachial bones (radius and ulna) of a fetus were cut off from the trunk. The connective tissues and cartilages were removed as much as possible to prepare a sample for bone culture. Each piece of bone was cultured in 0.6 ml of BGJb medium (Fitton-Jackson modification, GIBCO Laboratories, U.S.A., supplemented with 2 mg/ml of bovine serum albumin) at 37° C. for 24 hours and after addition of AO-128 at a final concentration of 10 μg/ml or 1,25(OH)2 vitamin D3 at a concentration of 0.8 pg/ml, was further incubated in the same medium for 2 days. The ^45 Ca radioactivity in the medium and that in the bone were respectively counted and the rate (%) of ^45 Ca release from the bone into the medium was calculated by means of the following equation. [formula]
The bones from another fetus of the same litter were incubated without addition of the test compounds for 2 days as controls. The means±S.D. of values found from 5 pieces of bone in each group was calculated and the percentage (%) of the mean value relative to the mean value of the control group was calculated.

The nature of data set [2]: Dietary calcium absorption promoting effect in rats (medicated diet; body weight, food consumption, urinary and plasma calcium). To be noted: for Body weight / Plasma calcium / Food consumption / Urinary calcium: mean ± S.D., n=6; for Urinary calcium: ** = 1% level of significance vs control. Type of data set: in vivo, male rats (Jcl: SD). The source says:
Dietary calcium absorption promoting effect of N-(1,3-dihydroxy-2-propyl)valiolamine in rats
Five-week-old male rats (Jcl: SD) were divided into 2 groups and one group (control group) was given a regular diet (CE-2. Japan Clea Co.) while the other group was put on a medicated diet, i.e. CE-2 supplemented with N-(1,3-dihydroxy-2-propyl)valiolamine (AO-128). The level of addition of AO-128 was 10 ppm during the first 10 days and 25 ppm during the subsequent 7 days. On days 3, 10 and 17 of feeding, the body weight, food consumption, urinary calcium excretion, and plasma calcium concentration were determined.

The nature of data set [3]: Exogenous calcium absorption promoting effect in rats (oral sucrose + calcium carbonate load, 24 hr urinary calcium). Type of data set: in vivo, male rats (Jcl: SD). To be noted: for Urinary calcium: sucrose 2.5 g/kg, calcium carbonate 400 mg/kg, 24 hr urine, mean ± S.D. As to the method:
Exogenous calcium absorption promoting effect of N-(1,3-dihydroxy-2-propyl)valiolamine in rats
Eight-week-old male rats (Jcl: SD) fasted for 20 hours were orally dosed with 72.5% sucrose aqueous solution [2.5 g (sucrose)/kg (body weight)], 5% calcium carbonate aqueous suspension [400 mg (CaCO3)/kg (body weight)] and 0.015, 0.05 or 0.15% aqueous AO-128 solution [0.3, 1.0 or 3.0 mg ((AO-128)/kg (body weight)] and the 24 hr urine was collected for the determination of urinary calcium. The animals were deprived of food during urine collection but had free access to water. The results are shown in Table 2.

The nature of data set [4]: Acute oral toxicity in mice. To be noted: mouse, in vivo, mice (NRMI).
Data set [5] is described as follows: Acute oral toxicity in rats. To be noted: rat, in vivo, rats (Wistar).
Setting [6] is: Day 17, 10 ppm first 10 days then 25 ppm 7 days in diet.

Take `C=C1/C(=C\C=C2/CCC[C@]3(C)[C@@H]([C@H](C)CCCC(C)(C)O)CC[C@@H]23)C[C@@H](O)C[C@@H]1O` [1,25(OH)2 vitamin D3, reference compound]: the “^45 Ca released into medium” value in data set [1] (0.8 pg/ml, control 12.3 ± 2.2, *p < 0.001) is listed as 26.6 ± 2.2%. The fold induction at 800 fg/mL in data set [1] (Rattus norvegicus, 48 h, read-out: increase in the release of ^45 Ca into the medium) is 2.2.
`OCC(CO)N[C@H]1C[C@](O)(CO)[C@@H](O)[C@H](O)[C@H]1O` [AO-128, N-(1,3-dihydroxy-2-propyl)valiolamine]: the “body weight gain (in words)” value in data set [2] (AO-128 group, diet 10 then 25 ppm) was “a tendency of suppressed body weight gain”. The Body weight in data set [2] (Day 3, 10 ppm in diet) came to 143 ± 7 g; in data set [2] (Day 10, 10 ppm in diet) it was 176 ± 8 g; in data set [2] (setting [6]), 250 ± 14 g. In addition, the Plasma calcium is 10.8 ± 0.5 mg/dL in data set [2] (Day 3, 10 ppm in diet); 10.3 ± 0.5 mg/dL in data set [2] (Day 10, 10 ppm in diet); 9.9 ± 0.3 mg/dL in data set [2] (setting [6]). For the same compound, the Food consumption in data set [2] (Day 3, 10 ppm in diet, * = 5% level of significance vs control) was 12.7 ± 1.7 g/day; in data set [2] (Day 10, 10 ppm in diet), 22.7 ± 2.3 g/day; in data set [2] (setting [6]), 24.5 ± 2.0 g/day. Moreover, the Urinary calcium is 1.99 ± 0.67 mg/day in data set [2] (Day 3, 10 ppm in diet); 2.10 ± 0.54 mg/day in data set [2] (Day 10, 10 ppm in diet); 311 ± 214 µg/day in data set [3] (AO-128 0.3 mg/kg oral, n=7); 441 ± 172 µg/day in data set [3] (AO-128 1.0 mg/kg oral, n=6, * = 2% level of significance vs control); 517 ± 195 µg/day in data set [3] (AO-128 3.0 mg/kg oral, n=6, ** = 1% level of significance vs control). For the same compound, the “urinary calcium excretion (in words)” value in data set [2] (all determination days) is reported as “increases”. Further, the “food consumption (in words)” value in data set [2] (day 3) is listed as “slight decrease on day 3”; in data set [2] (day 10), “recovery on day 10”; in data set [2] (day 17), “a tendency of increase in day 17”. The “plasma calcium concentration (in words)” value in data set [2] (days 3, 10 and 17) was “no significant change”. Also, in data set [3] (administered concurrently with a carbohydrate and calcium, based on the two experiments), the “absorption of calcium (in words)” value is given as “increases the absorption of calcium”. In addition, the “urinary calcium (in words)” value in data set [3] (concurrent with calcium carbonate and sucrose) is reported as “dose-dependent increase”. In addition, the figures for the 50% lethal dose (LD50) in data set [4] and in data set [5] were 14700 to 21500 mg/kg and approximately 20000 mg/kg, respectively. The “effect on bone resorption (in words)” value in data set [1] (10 μg/ml) is reported as “no change”. Moreover, the “^45 Ca released into medium” value in data set [1] (10 μg/ml, control 12.7 ± 3.2) amounted to 12.6 ± 2.5%.

For orientation: LD50 means the dose expected to kill half of the subjects tested. Low readings indicate a more toxic substance, high ones a less toxic substance.
